In experiment [1] the test system is colitis model mice (2.0% DSS, C57BL/6J). Put plainly: DSS-induced colitis model mice: colitis-suppressing action (body weight, DAI score, colon length). The experiment is classed as in vivo. Conditions: oral, 7 days; for effect on colitis (overall): indigo amount 0.5 mg/day (equivalent to 25 mg/kg/day). The procedure:
As mice used in an animal test, C57BL/6J was started to use after preliminary breeding for 3 days after purchase. First, a 2.0% solution of DSS (dextran sulfate sodium salt, molecular weight 36,000 to 44,000) was given to mice to cause colitis to prepare colitis model mice. The colitis model mice were administered with only sterilized water to obtain control mice. It should be noted that, in order to maintain the colitis state of the mice for 7 days, the 2.0% DDS (dextran sulfate sodium salt) solution was orally administered at the same time as the administration of the sterile water. Five capsules (equivalent to indigo amount of 0.5 mg) and 15 capsules (equivalent to indigo amount of 1.5 mg) both of which were the indigo-containing capsules A were each orally administered to 5 specimens of colitis mice for 7 days. It should be noted that, in order to maintain the colitis state of the mice for 7 days, the 2.0% DDS (dextran sulfate sodium salt) solution was orally administered at the same time when the oral administration of the capsules A. Colitis-suppressing action of indigo was evaluated by a decrease in the endpoints such as body weight (BW), disease activity index (DAI) score (DAI score: a total score (0 to 12) of the number of defecation, bloody stool, mucosal findings, and general endpoints scored 0 to 3 on a 4-point scale), and colon length. […] FIG. 3 is a graph representing results of disease activity index score (DAI score). It should be noted that the DAI score refers to an evaluation index described in the literature “Sutherland L R, Martin F, Greer S, et al: 5-Aminosalicylic acid enema in the treatment of distal colitis, proctosigmoiditis, and proctitis. Gastroenterology 92: 1894-1898, 1987”. FIG. 4 is a graph representing results of measuring colon length. Since the colon length is shortened by causing colitis, the colon length of each mouse group was measured as another index for the evaluation of colitis, and the average value thereof was represented by a histogram.

For another experiment, the system named is mouse model of colitis. Conditions: cited from earlier work.
Setting [2] is: indigo amount 0.5 mg/day, vs control group.

SMILES strings stand for the structures.

With `O=C1/C(=C2\Nc3ccccc3C2=O)Nc2ccccc21` [indigo powder, indigo], the “effect on colitis (overall)” value in experiment [1] is “no effect of indigo was observed”; in experiment [1] (listed as powder), “no effect”. Further, the “changes in body weight (BW)” value in experiment [1] (setting [2]) is recorded as “decreasing the body weight was also observed as compared with the control group”. Besides, in experiment [1] (setting [2]), the colon length entry is on record as “the same as that of the control group”. Further, the “effect in colitis model mice” value in the experiment with mouse model of colitis (low dose 60 mg/kg/day of powder) is reported as “effective”. Moreover, in the experiment with mouse model of colitis (powder administration), the “therapeutic effect in mouse model of colitis” value is given as “had a therapeutic effect”.

Values taken from patent US12357579B2, “Capsule for treating ulcerative colitis” (KEIO UNIVERSITY, priority 2018, dated 2025).
